We go through one molecule from patent US7056908B2, “Pharmaceutical compositions and methods for preventing skin tumor formation and causing regression of existing tumors” (priority 1991, dated 2006).

Assay [1] relates to primary keratinocytes. As to the kind of experiment: Cornified envelope formation in primary keratinocytes. The format is cell-based, mouse. The following applies: additional experiment, 60 nM bryostatin.
Method: Cornified Envelope Quantitation. Keratinocytes were analyzed for cornified envelope formation as described (Nagae, S. et al, “Effect of retinoic acid on cornified envelope formation: difference between spontaneous envelope formation in vivo or in vitro and expression of envelope competence,” J. Invest., Dermatol., 89: 51–58, 1987), with minor modifications. Floating cells were harvested by collecting culture medium from each 60 mm dish and combining with two washes using phosphate-buffered saline without Ca^2+ and Ms^+2 (PBS). Cells were pelleted for 5 minutes at 1000 rpm in a benchtop clinical centrifuge and resuspended in 100 μl of lysis buffer (2% sodium dodecyl sulfate (SDS) and 20 mM dithiothreitol in PBS). Attached cells were harvested in 250 μl lysis buffer, combined with the preparation of floating cells, and incubated at 95° for 10 minutes. The non-solubilized, intact cornified envelopes, characteristic of terminally differentiated keratinocytes, were counted using a hemocytometer (Nagae, S. et al, “Effect of retinoic acid on cornified envelope formation: difference between spontaneous envelope formation in vivo or in vitro and expression of envelope competence,” J. Invest. Dermatol., 89: 51–58, 1987).
Floating and attached cell populations were harvested and cornified envelopes isolated. Data are mean values for three separate dishes±standard error of the mean from one experiment.
7 day old primary keratinocytes were cultured with or without 60 nM bryostatin for 15 hours. […] Each data bar is the average value from duplicate dishes with the range indicated by error bars.
Assay [2] relates to primary keratinocytes. The format is cell-based, mouse. To be noted: 60 nM bryostatin for 1 day. The protocol: EGF binding was assessed in 6-well tissue culture dishes plated at a cell density of 2.5×10^6 cells/well (Strickland, J. E. et al, “Interaction of epidermal growth factor with basal and differentiating epidermal cells of mice resistant and sensitive to carcinogenesis,” Carcinogenesis, 5: 735–740, 1984). […] A second set of cultures received, in addition, 1 μg/ml unlabelled EGF to assess non-specific binding of radioactive ligand. Following the incubation period, cultures were washed 4 times with ice-cold binding buffer, harvested in 1.5 ml lysis buffer (0.1 M tris (pH 7.4), 0.5% SDS, 1 mM EDTA), and radioactivity determined by scintillation counting.
Exposure of a variety of cultured cell types to TPA results in inhibition of EGF binding which is attributed to PKC-mediated phosphorylation of the EGF receptor (Diamond, L., “Tumor promoters and cell transformation,” In: D. Grunberger and S. P. Goff. (eds.), Mechanisms of Cellular Transformation by Carcinogenic Agents, pp. 73–133, New York: Pergamon Press. 1987).
Each point is the mean of trilpicate dishes±standard error of the mean.

Turning to `CCC/C=C/C=C/C(=O)O[C@H]1/C(=C/C(=O)OC)C[C@H]2C[C@H]([C@@H](C)O)OC(=O)C[C@H](O)C[C@@H]3C[C@H](OC(C)=O)C(C)(C)[C@](O)(C[C@@H]4C/C(=C/C(=O)OC)C[C@H](/C=C/C(C)(C)[C@]1(O)O2)O4)O3` [bryostatin], the “reduction of cornified envelope formation by bryostatin pre-treatment” value in the assay with primary keratinocytes [1] (TPA-treated cultures) and with primary keratinocytes [1] (staurosporine-treated cultures) was 70% in each case. Further, the “block by bryostatin pre-treatment of staurosporine-mediated inhibition of 125I-EGF binding” value with primary keratinocytes [2] (average over a 4 hour period) is reported as 50%. For the same molecule, the “block by bryostatin pre-treatment of TPA-mediated inhibition of 125I-EGF binding” value with primary keratinocytes [2] (over a 4 hour period) is reported as “completely blocked”.
